What all share (assay): HTRF KinEASE-TK IC50 determination (Rauh Lab)
Holding throughout (assay type): biochemical

One test has as its target T1, ErbB2-insYVMA (Homo sapiens, UniProt P04626, INS775YVMA).
T1 construct: purchased ProQinase lot1525-0000-1/003
To be noted: ATP at Km (6 µM); racemate tested; read-out: IC50 ± s.d., ErbB2insYVMA. As for the experimental part: (§1) IC 50 determinations for EGFR, its mutants and ErbB2-insYVMA (Carna Biosciences, lot13CBS-0005K for EGFR-wt; Carna, lot13CBS-0537B for EGFR-L858R; Carna, lot12CBS-0765B for EGFR-L858R/T790M; and ProQinase, lot1525-0000-1/003 for ErbB2-insYVMA) were performed with the HTRF KinEASE-TK assay from Cisbio according to the manufacturer’s instructions. Briefly, the amount of kinase in each reaction well was set to 0.60 ng EGFR-wt (0.67 nM), 0.10 ng EGFR-L858R (0.11 nM), 0.07 ng EGFR-T790M/L858R (0.08 nM), or 0.01 ng ErbB2-insYVMA (0.01 nM). An artificial substrate peptide (TK-substrate from Cisbio) was phosphorylated by EGFR or ErbB2. After completion of the reaction (reaction times: 25 min for EGFR-wt, 15 min for L858R, 20 min for L858R/T790M, and 40 min for ErbB2-insYVMA), the reaction was stopped by addition of buffer containing EDTA as well as an anti-phosphotyrosine antibody labeled with europium cryptate and streptavidin labeled with the fluorophore XL665. FRET between europium cryptate and XL665 was measured after an additional hour of incubation to quantify the phosphorylation of the substrate peptide. […] Kinase and inhibitor were preincubated for 30 min before the reaction was started by addition of ATP and substrate peptide. An EnVision multimode plate reader (Perkin Elmer) was used to measure the fluorescence of the samples at 620 nm (Eu ^3+ -labeled antibody) and 665 nm (XL665-labeled streptavidin) 50 µs after excitation at 320 nm. The quotient of both intensities for reactions made with eight different inhibitor concentrations was then analyzed using the Quattro Software Suite for IC 50 -determination. Each reaction was performed in duplicate, and at least three independent determinations of each IC 50 were made.

The target of the next test is T2, EGFR-L858R/T790M (Homo sapiens, UniProt P00533, L858R/T790M).
T2 construct: purchased Carna Biosciences lot12CBS-0765B
The following applies: ATP at Km (4 µM); read-out: IC50, EGFR L858R/T790M double mutant. The protocol:
as §1

For a further test, the target named is T3, EGFR-L858R (Homo sapiens, UniProt P00533, L858R).
T3 construct: purchased Carna Biosciences lot13CBS-0537B
To be noted: ATP at Km (9 µM); read-out: IC50, EGFR L858R mutant. As for the experimental part:
as §1

The target of another test is T4, EGFR-wt (Homo sapiens, UniProt P00533).
T4 construct: purchased Carna Biosciences lot13CBS-0005K
The following applies: ATP at Km (9.5 µM), racemate tested, read-out: IC50 ± s.d., EGFR. The protocol: as §1

“And” between values parts separate entries of the source, which are not always exact repeats. Equal values may be shown once.

T1 sequence (P04626 with tags, fused parts or gaps INS775YVMA limits assumed): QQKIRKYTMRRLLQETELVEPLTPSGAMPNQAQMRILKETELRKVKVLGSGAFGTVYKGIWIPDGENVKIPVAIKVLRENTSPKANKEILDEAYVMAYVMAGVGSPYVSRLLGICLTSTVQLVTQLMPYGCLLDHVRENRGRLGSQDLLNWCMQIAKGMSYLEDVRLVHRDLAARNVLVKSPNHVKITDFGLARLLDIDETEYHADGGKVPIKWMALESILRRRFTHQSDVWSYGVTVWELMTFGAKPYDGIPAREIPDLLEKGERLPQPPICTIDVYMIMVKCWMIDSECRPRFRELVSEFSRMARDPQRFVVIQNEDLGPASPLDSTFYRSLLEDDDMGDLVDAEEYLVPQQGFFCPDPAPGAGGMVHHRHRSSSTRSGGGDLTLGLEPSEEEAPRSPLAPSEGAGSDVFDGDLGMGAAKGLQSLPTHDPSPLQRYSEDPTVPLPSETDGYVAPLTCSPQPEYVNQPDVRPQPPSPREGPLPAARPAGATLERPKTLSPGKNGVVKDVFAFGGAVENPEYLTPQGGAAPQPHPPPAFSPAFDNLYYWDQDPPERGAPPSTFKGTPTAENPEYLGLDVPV
T2 sequence (P00533 25-1210 T790M/L858R): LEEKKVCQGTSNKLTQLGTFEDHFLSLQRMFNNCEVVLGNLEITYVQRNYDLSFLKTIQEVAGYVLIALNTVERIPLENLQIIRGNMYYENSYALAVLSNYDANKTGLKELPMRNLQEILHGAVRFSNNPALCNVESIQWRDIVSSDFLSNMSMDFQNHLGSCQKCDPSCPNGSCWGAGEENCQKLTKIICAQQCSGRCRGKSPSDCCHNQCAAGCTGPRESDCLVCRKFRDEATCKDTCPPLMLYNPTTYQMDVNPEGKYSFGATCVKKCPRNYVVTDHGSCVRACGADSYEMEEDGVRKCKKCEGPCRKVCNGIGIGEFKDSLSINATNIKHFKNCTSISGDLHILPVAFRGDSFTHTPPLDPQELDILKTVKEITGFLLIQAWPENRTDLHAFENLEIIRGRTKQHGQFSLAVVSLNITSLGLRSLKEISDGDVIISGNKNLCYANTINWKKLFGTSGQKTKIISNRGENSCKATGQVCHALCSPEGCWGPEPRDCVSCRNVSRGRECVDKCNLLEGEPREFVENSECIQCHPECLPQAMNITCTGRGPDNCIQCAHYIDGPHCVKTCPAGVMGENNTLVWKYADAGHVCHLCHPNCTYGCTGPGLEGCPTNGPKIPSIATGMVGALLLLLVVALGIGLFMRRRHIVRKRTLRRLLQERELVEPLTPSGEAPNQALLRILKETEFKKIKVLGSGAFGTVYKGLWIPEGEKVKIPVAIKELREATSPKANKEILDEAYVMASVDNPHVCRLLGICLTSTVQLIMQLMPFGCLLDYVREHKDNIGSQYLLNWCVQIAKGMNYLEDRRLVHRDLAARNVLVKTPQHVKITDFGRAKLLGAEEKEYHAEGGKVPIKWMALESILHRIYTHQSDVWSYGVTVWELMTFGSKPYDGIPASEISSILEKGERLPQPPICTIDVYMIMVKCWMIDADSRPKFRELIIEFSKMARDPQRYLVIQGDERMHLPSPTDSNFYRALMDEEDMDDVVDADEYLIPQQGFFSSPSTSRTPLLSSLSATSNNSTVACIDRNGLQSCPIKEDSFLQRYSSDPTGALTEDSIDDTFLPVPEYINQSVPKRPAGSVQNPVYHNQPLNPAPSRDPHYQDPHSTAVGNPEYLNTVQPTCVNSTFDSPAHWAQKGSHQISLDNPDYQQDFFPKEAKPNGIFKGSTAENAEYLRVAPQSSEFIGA
T4 sequence (P00533 25-1210): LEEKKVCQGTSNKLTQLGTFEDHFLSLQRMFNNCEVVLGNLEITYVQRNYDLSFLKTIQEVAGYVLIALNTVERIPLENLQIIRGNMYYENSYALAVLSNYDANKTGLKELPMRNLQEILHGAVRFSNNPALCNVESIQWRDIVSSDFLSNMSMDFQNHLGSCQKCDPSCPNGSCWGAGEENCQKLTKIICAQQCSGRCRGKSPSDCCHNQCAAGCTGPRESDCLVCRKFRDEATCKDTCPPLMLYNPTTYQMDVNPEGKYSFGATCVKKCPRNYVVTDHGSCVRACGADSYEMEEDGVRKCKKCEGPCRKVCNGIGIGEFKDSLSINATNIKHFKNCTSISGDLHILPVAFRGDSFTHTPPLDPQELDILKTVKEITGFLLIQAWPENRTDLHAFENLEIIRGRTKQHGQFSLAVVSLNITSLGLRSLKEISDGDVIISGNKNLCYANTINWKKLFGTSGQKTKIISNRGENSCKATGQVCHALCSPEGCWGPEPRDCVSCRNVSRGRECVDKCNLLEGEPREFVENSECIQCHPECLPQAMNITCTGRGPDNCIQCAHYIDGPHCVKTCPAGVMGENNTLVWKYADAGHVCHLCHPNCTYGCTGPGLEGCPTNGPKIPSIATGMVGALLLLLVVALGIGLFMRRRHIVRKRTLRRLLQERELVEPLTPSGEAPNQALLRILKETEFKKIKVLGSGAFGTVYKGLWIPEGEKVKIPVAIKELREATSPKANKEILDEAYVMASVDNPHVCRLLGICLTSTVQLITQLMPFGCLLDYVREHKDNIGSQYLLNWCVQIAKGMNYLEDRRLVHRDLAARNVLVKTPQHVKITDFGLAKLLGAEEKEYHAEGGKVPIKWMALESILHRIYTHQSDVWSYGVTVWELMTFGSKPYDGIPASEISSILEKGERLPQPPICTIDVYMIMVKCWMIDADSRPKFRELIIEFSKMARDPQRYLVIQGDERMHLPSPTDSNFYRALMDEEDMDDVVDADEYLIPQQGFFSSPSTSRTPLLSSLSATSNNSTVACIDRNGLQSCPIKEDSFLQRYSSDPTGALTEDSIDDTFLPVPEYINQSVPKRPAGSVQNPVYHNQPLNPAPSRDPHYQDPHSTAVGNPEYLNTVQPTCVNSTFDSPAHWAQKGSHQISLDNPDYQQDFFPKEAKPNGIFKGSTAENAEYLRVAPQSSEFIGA
T3 sequence (P00533 25-1210 L858R): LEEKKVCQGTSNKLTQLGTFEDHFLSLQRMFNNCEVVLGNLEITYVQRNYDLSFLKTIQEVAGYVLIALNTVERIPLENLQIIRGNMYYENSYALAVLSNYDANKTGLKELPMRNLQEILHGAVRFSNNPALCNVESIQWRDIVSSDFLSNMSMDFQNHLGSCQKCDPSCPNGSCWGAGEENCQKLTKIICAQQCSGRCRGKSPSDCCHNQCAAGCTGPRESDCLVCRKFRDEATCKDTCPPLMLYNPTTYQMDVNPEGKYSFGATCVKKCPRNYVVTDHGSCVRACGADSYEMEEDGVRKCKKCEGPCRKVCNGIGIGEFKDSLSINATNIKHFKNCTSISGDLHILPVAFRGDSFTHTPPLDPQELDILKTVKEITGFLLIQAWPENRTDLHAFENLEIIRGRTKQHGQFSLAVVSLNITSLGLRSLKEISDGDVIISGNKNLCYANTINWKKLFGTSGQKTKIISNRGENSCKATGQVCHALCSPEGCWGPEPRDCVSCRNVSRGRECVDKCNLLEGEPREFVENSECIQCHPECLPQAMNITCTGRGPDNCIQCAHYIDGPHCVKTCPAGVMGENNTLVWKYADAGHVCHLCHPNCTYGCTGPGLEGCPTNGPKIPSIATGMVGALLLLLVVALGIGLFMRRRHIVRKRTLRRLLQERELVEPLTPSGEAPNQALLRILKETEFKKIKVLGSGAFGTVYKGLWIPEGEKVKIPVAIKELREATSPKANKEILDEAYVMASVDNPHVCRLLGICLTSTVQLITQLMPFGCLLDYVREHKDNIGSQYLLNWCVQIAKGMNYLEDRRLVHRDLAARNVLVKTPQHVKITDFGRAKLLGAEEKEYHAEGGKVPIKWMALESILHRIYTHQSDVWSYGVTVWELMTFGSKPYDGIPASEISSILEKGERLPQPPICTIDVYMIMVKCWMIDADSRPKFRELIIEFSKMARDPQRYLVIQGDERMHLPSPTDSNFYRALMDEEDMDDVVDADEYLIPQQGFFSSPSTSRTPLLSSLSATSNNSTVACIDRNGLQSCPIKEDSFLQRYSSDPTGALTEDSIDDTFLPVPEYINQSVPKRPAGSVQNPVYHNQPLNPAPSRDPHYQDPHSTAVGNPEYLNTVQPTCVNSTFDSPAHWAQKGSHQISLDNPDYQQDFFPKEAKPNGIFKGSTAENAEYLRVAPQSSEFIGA

As to `COC(=O)Cc1ccc(Oc2ncnc3sc4c(c23)CC[C@@H](C)C4)cc1` (racemic) [DS39984], the IC50 was < 324 nM and 220 nM on ErbB2-insYVMA; over 10000 nM at EGFR-L858R/T790M; 2350 ± 397 nM at EGFR-L858R; 324 ± 50 nM on EGFR-wt.
